The source of these data is PubChem BioAssay (NCI).

Each structure is given as a SMILES string.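 48-hour exposure; five concentrations; linearly interpolated endpoints. TGI: concentration producing complete growth inhibition.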

Among the test systems are NCI-H460 lung; SF-539 CNS; CCRF-CEM leukemia; HT29 colon; OVCAR-8 ovarian; MDA-MB-231 breast; PC-3 prostate; SNB-19 CNS; SK-OV-3 ovarian; OVCAR-4 ovarian; MCF7 breast; HCC-2998 colon.
What all share (test): NCI anticancer screen, dose series, 48 h

As for `N/C(=N\S(=O)(=O)c1cc(Cl)c(Oc2ccc([N+](=O)[O-])cc2Cl)c(Cl)c1)Nc1ccc(Cl)cc1`, the TGI in the assay on NCI-H460 lung amounted to 40.1 µM; with SF-539 CNS, 34.4 µM; with CCRF-CEM leukemia it was 52.1 µM; in the assay with HT29 colon it was 54.4 µM; with OVCAR-8 ovarian it was 31.9 µM; in the assay on MDA-MB-231 breast, 32.9 µM. For the same compound, the TGI amounted to 30.5 µM with PC-3 prostate, 33.6 µM with SNB-19 CNS, 39.8 µM in the assay on SK-OV-3 ovarian and 30.4 µM in the assay on OVCAR-4 ovarian.

As for `CC(=O)OCC1OC(n2nc(Cc3ccccc3)c(=S)[nH]c2=S)C(OC(C)=O)C(OC(C)=O)C1OC(C)=O` (centres undefined), the TGI in the assay on NCI-H460 lung is greater than 100 µM; with SF-539 CNS, 67.8 µM; with HT29 colon, greater than 100 µM; with OVCAR-8 ovarian, 58.4 µM; with MDA-MB-231 breast, 30.6 µM; in the assay on PC-3 prostate, greater than 100 µM. Moreover, the TGI with SNB-19 CNS was 78.8 µM; in the assay on MCF7 breast, 72.7 µM; in the assay on SK-OV-3 ovarian, greater than 100 µM; in the assay with OVCAR-4 ovarian, 39.6 µM.

`CN(C)c1ccc(/C=C/c2cc(-c3ccccc3)[n+](C)n2-c2ccccc2)cc1`: the TGI with NCI-H460 lung is greater than 100 µM; in the assay on SF-539 CNS, 29 µM; in the assay with HT29 colon it was greater than 100 µM; with MDA-MB-231 breast it was 17.2 µM; with PC-3 prostate it was 3.27 µM; with SNB-19 CNS, 11.3 µM. The TGI with MCF7 breast was greater than 33.3 µM; in the assay with SK-OV-3 ovarian, 4.33 µM; in the assay with HCC-2998 colon it was 56.4 µM; in the assay with OVCAR-4 ovarian it was greater than 69.2 µM.

`COC(=O)C1C=CCON2CCc3c(n(S(=O)(=O)c4ccccc4)c4ccccc34)C12` (centres undefined): the TGI in the assay with NCI-H460 lung was greater than 92.3 µM; in the assay on SF-539 CNS, greater than 16.2 µM; in the assay with CCRF-CEM leukemia it was greater than 71.1 µM; in the assay with HT29 colon, greater than 100 µM; with OVCAR-8 ovarian, greater than 100 µM; with SNB-19 CNS it was greater than 77.7 µM. The TGI in the assay on SK-OV-3 ovarian is greater than 85.7 µM; with HCC-2998 colon, greater than 100 µM; in the assay with OVCAR-4 ovarian, greater than 31.6 µM.

For `COc1cc2ccc1OCc1cccc(n1)COc1ccc(cc1OC)C=NCCNCCN=C2`, the TGI in the assay with NCI-H460 lung, with SF-539 CNS, with HT29 colon, in the assay on OVCAR-8 ovarian, in the assay on MDA-MB-231 breast and in the assay on PC-3 prostate was greater than 100 µM each time. The TGI in the assay with SNB-19 CNS, in the assay with MCF7 breast, in the assay on SK-OV-3 ovarian, with HCC-2998 colon and with OVCAR-4 ovarian was greater than 100 µM throughout.

As to `O=c1c2c(c1=O)-c1ccccc1CN2`, the TGI with NCI-H460 lung, in the assay with SF-539 CNS, with CCRF-CEM leukemia, in the assay with HT29 colon, in the assay with OVCAR-8 ovarian and in the assay on SNB-19 CNS was greater than 100 µM each time. Moreover, the TGI in the assay with SK-OV-3 ovarian, in the assay with HCC-2998 colon and in the assay on OVCAR-4 ovarian was greater than 100 µM in each case.

For the compound `CCCCc1ccc(C#CC#Cc2ccc(CCCC)s2)s1`, the TGI in the assay with NCI-H460 lung, in the assay with SF-539 CNS, in the assay with CCRF-CEM leukemia, in the assay with HT29 colon, in the assay with OVCAR-8 ovarian and with MDA-MB-231 breast was greater than 100 µM throughout. Moreover, the TGI with MCF7 breast, in the assay on SK-OV-3 ovarian, with HCC-2998 colon and in the assay with OVCAR-4 ovarian was greater than 100 µM each time.

`CCCNC(=O)N1CC(CN2CCN(c3ccccc3)CC2)O/C1=N/C(=O)Nc1ccccc1` (centres undefined): the TGI in the assay on NCI-H460 lung, with HT29 colon, with MDA-MB-231 breast, in the assay on PC-3 prostate, in the assay with SNB-19 CNS and in the assay on MCF7 breast was greater than 100 µM each time. In addition, the TGI with SK-OV-3 ovarian, in the assay with HCC-2998 colon and in the assay with OVCAR-4 ovarian was greater than 100 µM throughout.

On to `COC(=O)/C(C#N)=C(\N)c1c(C)c2ccccc2oc1=N`, for which the TGI in the assay with NCI-H460 lung, in the assay on SF-539 CNS, with MDA-MB-231 breast, in the assay with PC-3 prostate, in the assay on SNB-19 CNS and with MCF7 breast was greater than 100 µM each time. The TGI with SK-OV-3 ovarian and in the assay on OVCAR-4 ovarian was greater than 100 µM in each case.

For the compound `CC(C)[C@@H](C)[C@@]1(C)C[C@@H]1[C@@H](C)[C@H]1CC[C@@H]([C@@H]2CC=C3C[C@@H](O)CC[C@]3(C)C2=O)[C@]1(C)CCO`, the TGI in the assay with NCI-H460 lung was found to be 3.32 µM; in the assay with SF-539 CNS, 25.3 µM; in the assay on HT29 colon, 7.39 µM; in the assay on OVCAR-8 ovarian, 25.5 µM; with MDA-MB-231 breast, 28 µM; in the assay with PC-3 prostate it was 21.8 µM. For the same compound, the TGI was determined as 25.1 µM with SNB-19 CNS, 22.8 µM in the assay with MCF7 breast, 16.4 µM in the assay with HCC-2998 colon and 24.8 µM in the assay with OVCAR-4 ovarian.

Consider `S=C=NC1CCC(c2cc3ccccc3s2)(N2CCCCC2)CC1` (centres undefined), for which the TGI with NCI-H460 lung was determined as 3.54 µM; with SF-539 CNS it was 3.77 µM; in the assay on CCRF-CEM leukemia it was 2.5 µM; in the assay on HT29 colon it was 3.66 µM; in the assay with SNB-19 CNS, 7.79 µM; with MCF7 breast, 5.72 µM. Also, the TGI with SK-OV-3 ovarian was 4.59 µM; with HCC-2998 colon, 3.22 µM; in the assay with OVCAR-4 ovarian, 3.7 µM.

As to `CCOC(=O)C1(Br)S(=O)(=O)OCCOS1(=O)=O`, the TGI in the assay on NCI-H460 lung, in the assay with SF-539 CNS, with CCRF-CEM leukemia, in the assay with HT29 colon, with OVCAR-8 ovarian and in the assay on SNB-19 CNS was greater than 100 µM throughout. Moreover, the TGI with SK-OV-3 ovarian, in the assay on HCC-2998 colon and in the assay with OVCAR-4 ovarian was greater than 100 µM in each case.

As to `CCCN(CCC)C1=Nc2ccccc2-n2cnnc2C1`, the TGI in the assay with NCI-H460 lung, with SF-539 CNS, in the assay with CCRF-CEM leukemia, in the assay on HT29 colon, in the assay on OVCAR-8 ovarian and with SNB-19 CNS was greater than 100 µM each time. Also, the TGI in the assay with OVCAR-4 ovarian was greater than 100 µM.

On to `C=C1Cc2cc(OC)c(OC)c(OC)c2-c2ccc(SC)c(=O)cc21`, for which the TGI with NCI-H460 lung is less than 0.035 µM; in the assay on SF-539 CNS it was less than 0.01 µM; with CCRF-CEM leukemia, 6.85 µM; with HT29 colon it was less than 0.01 µM; with SNB-19 CNS it was 5.3 µM; with SK-OV-3 ovarian, 5.15 µM. Also, the TGI in the assay with HCC-2998 colon came out at 0.402 µM; in the assay on OVCAR-4 ovarian, 18.9 µM.
